# Measured values as given in patent US20260053932A1, “COMPOUNDS AND METHODS FOR THE TARGETED DEGRADATION OF ANDROGEN RECEPTOR AND ASSOCIATED METHODS OF USE” (Arvinas Operations, Inc., priority 2020, published 2026).
# System: androgen receptor (AR) in LNCaP and/or VCaP cells
# Experiment: Androgen Receptor ELISA assay (AR degradation)
# Format: cell-based
# Settings: LNCaP and/or VCaP cells; 5 hours incubation; media with R1881; read-out: DC50 Code* (degradation of AR ELISA)
# Outline: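 VCaP cells grown ≥3 days, then treated 5 h with compound in media containing 1 nM R1881 (10× stock). Cells lysed and AR quantified by sandwich ELISA (mouse AR detection Ab, HRP anti-mouse, TMB). DC50 and Dmax derived from AR degradation.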
row,DC50,Structure (SMILES)
1,< 1 nM,"COc1cc(O[C@H]2CC[C@H](NC(=O)c3cnc(N4CC5(CC(CN(C(C)C)[C@H]6C[C@H](Oc7ccc8c(c7)C(=O)N(C7CCC(=O)NC7=O)C8=O)C6)C5)C4)cn3)CC2)ccc1C#N (stereo partly shown) [Compound 56, N-((1r,4r)-4-(4-cyano-3-methoxyphenoxy)cyclohexyl)-5-(6-((((1r,3r)-3-((2-(2,6-dioxopiperidin-3-yl)-1,3-dioxoisoindolin-5-yl)oxy)cyclobutyl) (isopropyl)amino)methyl)-2-azaspiro[3.3]heptan-2-yl)pyrazine-2-carboxamide]"
2,< 1 nM,"CC(C)N(CC1CN(c2cnc(C(=O)N[C@H]3CC[C@H](Oc4ccc(C#N)c(Cl)c4)CC3)cn2)C1)[C@H]1C[C@H](Oc2ccc3c(c2)C(=O)N(C2CCC(=O)NC2=O)C3=O)C1 (stereo partly shown) [Compound 37, N-((1r,4r)-4-(3-chloro-4-cyanophenoxy)cyclohexyl)-5-(3-((((1r,3r)-3-((2-(2,6-dioxopiperidin-3-yl)-1,3-dioxoisoindolin-5-yl)oxy)cyclobutyl) (isopropyl)amino)methyl)azetidin-1-yl)pyrazine-2-carboxamide]"
3,< 1 nM,"N#Cc1ccc(O[C@H]2CC[C@H](NC(=O)c3ccc(N4CCC(CN5CCN(c6ccc7c(c6)C(=O)N(C6(F)CCC(=O)NC6=O)C7=O)CC5)CC4)nn3)CC2)cc1Cl (mixture of isomers) [Compound 18, rac-N-((1r,4r)-4-(3-chloro-4-cyanophenoxy)cyclohexyl)-6-(4-((4-(2-(3-fluoro-2,6-dioxopiperidin-3-yl)-1,3-dioxoisoindolin-5-yl)piperazin-1-yl)methyl)piperidin-1-yl)pyridazine-3-carboxamide]"
4,< 1 nM,"COc1cc(O[C@H]2CC[C@H](NC(=O)c3cnc(N4CCC(CN(C(C)C)[C@H]5C[C@H](Oc6cc(OC)c7c(c6)C(=O)N(C6CCC(=O)NC6=O)C7=O)C5)CC4)cn3)CC2)ccc1C#N (stereo partly shown) [Compound 38, N-((1r,4r)-4-(4-cyano-3-methoxyphenoxy)cyclohexyl)-5-(4-((((1r,3r)-3-((2-(2,6-dioxopiperidin-3-yl)-7-methoxy-1,3-dioxoisoindolin-5-yl)oxy)cyclobutyl) (isopropyl)amino)methyl)piperidin-1-yl)pyrazine-2-carboxamide]"
5,< 1 nM,"COc1cc(O[C@H]2CC[C@H](NC(=O)c3cnc(N4CCC(CN(C)[C@H]5C[C@H](Oc6ccc7c(c6)C(=O)N(C6CCC(=O)NC6=O)C7=O)C5)CC4)cn3)CC2)ccc1C#N (stereo partly shown) [Compound 39, N-((1r,4r)-4-(4-cyano-3-methoxyphenoxy)cyclohexyl)-5-(4-((((1r,3r)-3-((2-(2,6-dioxopiperidin-3-yl)-1,3-dioxoisoindolin-5-yl)oxy)cyclobutyl) (methyl)amino)methyl)piperidin-1-yl)pyrazine-2-carboxamide]"

# Same assay, conditions: degradation of AR ELISA in LNCaP and/or VCaP cells; Table 2C; read-out: DC50 Code*
row,Structure (SMILES),DC50
1,"Cc1cc(O[C@H]2C(C)(C)[C@H](NC(=O)c3ccc(N4CCC(CN5CCCC[C@@H]5COc5ccc6c(c5)C(=O)N(C5CCC(=O)NC5=O)C6=O)CC4)cc3)C2(C)C)cc(C)c1C#N (stereo partly drawn) [compound 192, N-((1r,3R)-3-(4-cyano-3,5-dimethylphenoxy)-2,2,4,4-tetramethylcyclobutyl)-4-(4-(((2R)-2-(((2-(2,6-dioxopiperidin-3-yl)-1,3-dioxoisoindolin-5-yl)oxy)methyl)piperidin-1-yl)methyl)piperidin-1-yl)benzamide]",< 1 nM
2,"COCCN(CC1CCN(c2ccc(C(=O)N[C@H]3C(C)(C)[C@H](Oc4ccc(C#N)c(Cl)c4)C3(C)C)cc2)CC1)[C@H]1C[C@H](Oc2cc(OC)c3c(c2)C(=O)N(C2CCC(=O)NC2=O)C3=O)C1 (stereo partly shown) [compound 105, N-((1r,3r)-3-(3-chloro-4-cyanophenoxy)-2,2,4,4-tetramethylcyclobutyl)-4-(4-((((1r,3r)-3-((2-(2,6-dioxopiperidin-3-yl)-7-methoxy-1,3-dioxoisoindolin-5-yl)oxy)cyclobutyl)(2-methoxyethyl)amino)methyl)piperidin-1-yl)benzamide]",< 1 nM
3,"Cc1cc(O[C@H]2C(C)(C)[C@H](NC(=O)c3cnc(N4CCC(CCN5CC(Oc6ccc7c(c6)C(=O)N(C6CCC(=O)NC6=O)C7=O)C5)CC4)cn3)C2(C)C)cc(C)c1C#N (stereo partly shown) [compound 115, N-((1r,3r)-3-(4-cyano-3,5-dimethylphenoxy)-2,2,4,4-tetramethylcyclobutyl)-5-(4-(2-(3-((2-(2,6-dioxopiperidin-3-yl)-1,3-dioxoisoindolin-5-yl)oxy)azetidin-1-yl)ethyl)piperidin-1-yl)pyrazine-2-carboxamide]",< 1 nM
4,"Cc1cc(O[C@H]2C(C)(C)[C@H](NC(=O)c3cnc(N4CCC(CN(C(C)C)[C@H]5C[C@H](Oc6cccc7c6CN(C6CCC(=O)NC6=O)C7=O)C5)CC4)cn3)C2(C)C)cc(C)c1C#N (mixture of isomers) [compound 185, rac-N-((1r,3r)-3-(4-cyano-3,5-dimethylphenoxy)-2,2,4,4-tetramethylcyclobutyl)-5-(4-((((1r,3r)-3-((2-(2,6-dioxopiperidin-3-yl)-1-oxoisoindolin-4-yl)oxy)cyclobutyl) (isopropyl)amino)methyl)piperidin-1-yl)pyrazine-2-carboxamide]",< 1 nM

# Further lines, results first:
row,DC50,Structure (SMILES)
1,10 to 100 nM,"COc1cc(O[C@H]2C[C@H](N(CC(F)F)CC3CCN(c4cnc(C(=O)N[C@H]5C(C)(C)[C@H](Oc6ccc(C#N)c(Cl)c6)C5(C)C)cn4)CC3)C2)cc2c1C(=O)N(C1CCC(=O)NC1=O)C2=O (stereo partly shown) [compound 137, N-((1r,3r)-3-(3-chloro-4-cyanophenoxy)-2,2,4,4-tetramethylcyclobutyl)-5-(4-(((2,2-difluoroethyl)((1r,3r)-3-((2-(2,6-dioxopiperidin-3-yl)-7-methoxy-1,3-dioxoisoindolin-5-yl)oxy)cyclobutyl)amino)methyl)piperidin-1-yl)pyrazine-2-carboxamide]"
2,< 1 nM,"COc1cc(O[C@H]2C(C)(C)[C@H](NC(=O)c3cnc(N4CCC(CN(C(C)C)[C@H]5C[C@H](Oc6cc(OC)c7c(c6)C(=O)N(C6CCC(=O)NC6=O)C7=O)C5)CC4)cn3)C2(C)C)ccc1C#N (stereo partly shown) [compound 98, N-((1r,3r)-3-(4-cyano-3-methoxyphenoxy)-2,2,4,4-tetramethylcyclobutyl)-5-(4-((((1r,3r)-3-((2-(2,6-dioxopiperidin-3-yl)-7-methoxy-1,3-dioxoisoindolin-5-yl)oxy)cyclobutyl) (isopropyl)amino)methyl)piperidin-1-yl)pyrazine-2-carboxamide]"
3,< 1 nM,"COc1cc(O[C@H]2C(C)(C)[C@H](NC(=O)c3cnc(N4CCC(CN(C(C)C)[C@H]5C[C@H](Oc6cccc7c6CN(C6CCC(=O)NC6=O)C7=O)C5)CC4)cn3)C2(C)C)ccc1C#N (mixture of isomers) [compound 177, rac-N-((1r,3r)-3-(4-cyano-3-methoxyphenoxy)-2,2,4,4-tetramethylcyclobutyl)-5-(4-((((1r,3r)-3-((2-(2,6-dioxopiperidin-3-yl)-1-oxoisoindolin-4-yl)oxy)cyclobutyl) (isopropyl)amino)methyl)piperidin-1-yl)pyrazine-2-carboxamide]"
4,< 1 nM,"COCCN(CC1CCN(c2cnc(C(=O)N[C@H]3C(C)(C)[C@H](Oc4cc(C)c(C#N)c(C)c4)C3(C)C)cn2)CC1)[C@H]1C[C@H](Oc2ccc3c(c2)C(=O)N(C2CCC(=O)NC2=O)C3=O)C1 (stereo partly shown) [compound 119, N-((1r,3r)-3-(4-cyano-3,5-dimethylphenoxy)-2,2,4,4-tetramethylcyclobutyl)-5-(4-((((1r,3r)-3-((2-(2,6-dioxopiperidin-3-yl)-1,3-dioxoisoindolin-5-yl)oxy)cyclobutyl)(2-methoxyethyl)amino)methyl)piperidin-1-yl)pyrazine-2-carboxamide]"
